Reference: US7732485B2, “Treatment of cancer” (The University of Manchester, priority 2003, dated 2010)

How the values were obtained:
A2780cis cell line = assay: Growth inhibition assay (modified MTT); type: cell-based, human; conditions: A2780cis, five-day MTT
Protocol: (§1) The sensitivities of the cell lines to cisplatinum, carboplatinum, and compounds A-F were determined using a growth inhibition assay which was a modified version of the MTT method (modified version of MTT method described in Appendix B).
(§2) The following is a brief description of the eleven different cell lines used in the growth inhibition assay: • The A2780 cell line (1 in FIGS. 1-9) is a human ovarian cell line which is sensitive to cisplatinum and carboplatinum. […] The cor123/cpr (7) cell line is a modified version of the cor123 cell line which has been modified to be resistant to cisplatinum and carboplatinum. • The ccu24 (8) cell line is an epithelial ovarian cancer cell line, developed at the Christie Hospital from a tumour biopsy, and the ccu24/cpr (9) cell line is a modified version of this cell line which is cisplatinum and carboplatinum resistant. • L1210 (10) is a murine leukemia cell line and L1210/M1140 (11) is its platinum drug resistant subline.
(§3) The cell toxicity studies were performed using a modification of the method MTT.^7 The principle of the assay is to assess the growth inhibitory effect of a drug at various doses over a five-day time course. This assay was performed in 96-well microtitre plates. Cells were seeded at densities of 400-1,000 cells per well, depending on the doubling time of the cell line. All cell dilutions were performed in growth medium containing 10% FCS (foetal calf serum).
(§4) Compounds under investigation were dissolved in DMSO (dimethylsulphoxide). Serial dilutions of compound were made into the cell suspension, ensuring that the proportion of DMSO remained below 0.5%. 200 μl of cells and drug mix was added to the 96-well plates in triplicate. The plates were incubated for five days at 5% CO2 and 37° C. After this time, the plates were removed from the incubator and 50 μl of a 3 mg/ml solution of MTT [3-(4,5-dimethyl-thiazol-2-yl)-2,5-diphenyl tetrazolium bromide] was added to each well and incubated in the same conditions for another 3 hours. The medium from each well was aspirated and the formazan crystals were solubilised in 200 μl of DMSO. The plates were read using a Multiskan platereader at 540 nm and 690 nm. Growth inhibition curves were constructed using mean and standard deviation of the triplicate absorbance values and from these curves the IC50 values were calculated.

A2780carb cell line = assay: Growth inhibition assay (modified MTT); type: cell-based, human; conditions: A2780carb, five-day MTT
Protocol: as §1, §2, §3, §4

ccu24/cpr cell line = assay: Growth inhibition assay (modified MTT); type: cell-based, human; conditions: five-day MTT
Protocol: as §1, §2, §3, §4

A2780-S cell line = assay: Growth inhibition assay (modified MTT); type: cell-based, human; conditions: five-day MTT
Protocol: as §1, §2, §3, §4

cor123 cell line = assay: Growth inhibition assay (modified MTT); type: cell-based, human; conditions: five-day MTT
Protocol: as §1, §2, §3, §4

ccu24 cell line = assay: Growth inhibition assay (modified MTT); type: cell-based, human; conditions: five-day MTT
Protocol: as §1, §2, §3, §4

mcp8 cell line = assay: Growth inhibition assay (modified MTT); type: cell-based, human; conditions: five-day MTT
Protocol: as §1, §2, §3, §4

cor123/cpr cell line = assay: Growth inhibition assay (modified MTT); type: cell-based, human; conditions: five-day MTT
Protocol: as §1, §2, §3, §4

mcp1 cell line = assay: Growth inhibition assay (modified MTT); type: cell-based, human; conditions: five-day MTT
Protocol: as §1, §2, §3, §4

A2780carb = assay: Comet assay, DNA crosslinking; type: cell-based, human; conditions: ratio >1 = more cross-linking in parental than in platinum-resistant line
Protocol: (§5) Preliminary studies have been carried out to investigate the mechanism underlying this increased sensitivity. These studies were carried out using the Comet assay (described in Appendix C), which measures damage to DNA. The results are shown in FIGS. 1 (cisplatinum), 2 (carboplatinum), 3 to 8 (compounds A-F) and 9 (phenylgoldtriphenylphospine, PAuP).
(§6) Table 3 illustrates the results of the following calculation using the DNA cross-linking results obtained in the Comet assays:
(§7) DNA damage was measured by the single cell gel electrophoresis (SCGE) assay or “Comet assay”, originally developed by Ostling and Johnson^8. This is a method for determining the extent of DNA damage and repair capacity within individual cells.^9-11 It has previously been shown that this technique can be used to investigate the mechanism of action of different DNA damaging agents.^12
(§8) Cells were trypsinised, suspended in 0.5 ml of ice cold fresh medium and transferred into plastic 24-well dishes prior to embedding in agarose. For the cross-linking studies treated and control samples were chilled on ice (to prevent any repair of DNA damage) and irradiated to a dose of 20 Gy in a Caesium-137 source (0.4 Gy/min). Control, (unirradiated, non-drug treated cells) were maintained on ice in the same manner as treated samples.
(§9) Glass microscope slides, frosted at one end, were pre-coated with 1% normal agarose in distilled water. These slides were allowed to air dry overnight prior to use. A 1% low melting point agarose (LMP) mixture in PBS was melted and held at 45° C. 1 ml of LMP was then added to 0.5 ml of cell suspension on ice and the resultant mixture was pipetted onto a pre-coated glass microscope slide and allowed to set for 1-2 minutes before being transferred to an ice tray. The slides were immersed in ice cold lysis solution (100 mM EDTA, 10 mM Tris-HCl, 1% Triton ×100, 1% DMSO, 2.5M NaCl) for 1 hr, and washed three times by immersion in fresh double distilled water for 15 minutes.
(§10) Slides were then placed onto a flat bed electrophoresis tank and covered (5-6 mm) with alkali unwinding solution (50 mM NaOH, 1 mM EDTA buffered to pH 12.5) and left under subdued lighting for 45 minutes to allow the DNA to unwind before being subjected to electrophoresis at 0.6V/cm for 25 minutes. Each slide was rinsed with 2×1 ml of 0.4M Tris-HCl, pH 8.0 and allowed to dry in air. The dried slides were then rehydrated for 20 minutes with double distilled water, 2×1 ml of propidium iodide solution (2.5 μg/ml) was added and staining was allowed to proceed for 15 minutes. Slides were then immersed in 1 litre of double distilled water for 1 hour to reduce excess background staining. The slides were cover slipped and then examined at 250× magnification under an epifluorescent microscope (Zeiss-Jenamed) using green light from a 50 watt mercury source with a 580 nm reflector and a 590 nm barrier filter set. Images were captured using an attached Sony HAD-1 interline CCD camera and Komet software analysis package (Kinetic Imaging). Twenty-five images from each of two duplicate slides were captured and analysed and the individual “comet moments” as defined by Olive et al^13, were calculated. The total fluorescence of the image represents the amount of DNA present and the length of the image, measured in pixels, represents the length of migration of the DNA. The head and tail areas of the image were identified and the intensity of each was determined. The tail moment is calculated by multiplying the fraction of DNA present in the tail by half the length of the tail.

A2780cis = assay: Comet assay, DNA crosslinking; type: cell-based, human; conditions: ratio >1 = more cross-linking in parental than in platinum-resistant line
Protocol: as §5, §6, §7, §8, §9, §10

cor123 = assay: Comet assay, DNA crosslinking; type: cell-based, human; conditions: ratio >1 = more cross-linking in parental than in platinum-resistant line
Protocol: as §5, §6, §7, §8, §9, §10

ccu24 = assay: Comet assay, DNA crosslinking; type: cell-based, human; conditions: ratio >1 = more cross-linking in parental than in platinum-resistant line
Protocol: as §5, §6, §7, §8, §9, §10

A2780mcp1 = assay: Comet assay, DNA crosslinking; type: cell-based, human; conditions: ratio >1 = more cross-linking in parental than in platinum-resistant line
Protocol: as §5, §6, §7, §8, §9, §10

A2780/mcp8 = assay: Comet assay, DNA crosslinking; type: cell-based, human; conditions: ratio >1 = more cross-linking in parental than in platinum-resistant line
Protocol: as §5, §6, §7, §8, §9, §10

L1210/M1140 cell line = assay: Growth inhibition assay (modified MTT); type: cell-based, murine; conditions: five-day MTT
Protocol: as §1, §2, §3, §4

L1210 cell line = assay: Growth inhibition assay (modified MTT); type: cell-based, murine; conditions: five-day MTT
Protocol: as §1, §2, §3, §4

L1210 = assay: Comet assay, DNA crosslinking; type: cell-based, murine; conditions: ratio >1 = more cross-linking in parental than in platinum-resistant line
Protocol: as §5, §6, §7, §8, §9, §10

[1] = Table 1, first series of assays
[2] = Table 2, further series of assays
[3] = Table 1, first series of assays, mcp8
[4] = Table 2, further series of assays, A2780/mcp8
[5] = Table 1, first series of assays, mcp1
[6] = Table 2, further series of assays, A2780/mcp1

SMILES	IC50 (A2780cis cell line; [1]) [nM]	IC50 (A2780cis cell line; [2]) [nM]	IC50 (A2780carb cell line; [1]) [nM]	IC50 (A2780carb cell line; [2]) [nM]	IC50 (ccu24/cpr cell line; [1]) [nM]	IC50 (ccu24/cpr cell line; [2]) [nM]	IC50 (A2780-S cell line; [1]) [nM]	IC50 (A2780-S cell line; [2]) [nM]	IC50 (cor123 cell line; [1]) [nM]	IC50 (cor123 cell line; [2]) [nM]	IC50 (ccu24 cell line; [1]) [nM]	IC50 (ccu24 cell line; [2]) [nM]	IC50 (mcp8 cell line; [3]) [nM]	IC50 (mcp8 cell line; [4]) [nM]	IC50 (cor123/cpr cell line; [1]) [nM]	IC50 (cor123/cpr cell line; [2]) [nM]	IC50 (mcp1 cell line; [5]) [nM]	IC50 (mcp1 cell line; [6]) [nM]	DNA crosslinking (Comet) ratio (A2780carb)	DNA crosslinking (Comet) ratio (A2780cis)	other results
c1ccc([PH]([Au][CH2]c2ccc[c]([Au][PH](c3ccccc3)(c3ccccc3)c3ccccc3)c2)(c2ccccc2)c2ccccc2)cc1 [E]	0.4	0.7	0.6	0.9	2.4	5.4	8.9	11.2	17.7	21.1	10.2	13.5	0.9	4.7	1.4	4.4	0.9	3.9	0.40	0.39	DNA crosslinking (Comet) ratio (cor123): 0.43; DNA crosslinking (Comet) ratio (ccu24): 0.46; DNA crosslinking (Comet) ratio (A2780mcp1): 0.41; DNA crosslinking (Comet) ratio (A2780/mcp8): 0.48; IC50 (L1210/M1140 cell line; [1]): 5.3 nM; IC50 (L1210/M1140 cell line; [2]): 8.5 nM; IC50 (L1210 cell line; [1]): 32.5 nM; IC50 (L1210 cell line; [2]): 35.6 nM; DNA crosslinking (Comet) ratio (L1210): 0.40
c1ccc([PH]([Au][CH2]c2cccc[c]2[Au][PH](c2ccccc2)(c2ccccc2)c2ccccc2)(c2ccccc2)c2ccccc2)cc1 [F]	5.4	8.3	7.3	10.4	9.5	12.2	20.4	24.3	28.2	31.1	22.1	26.4	5.3	11.4	11.4	14.6	6.3	10.4	0.61	0.52	DNA crosslinking (Comet) ratio (cor123): 0.62; DNA crosslinking (Comet) ratio (ccu24): 0.60; DNA crosslinking (Comet) ratio (A2780mcp1): 0.54; DNA crosslinking (Comet) ratio (A2780/mcp8): 0.56; IC50 (L1210/M1140 cell line; [1]): 11.4 nM; IC50 (L1210/M1140 cell line; [2]): 14.4 nM; IC50 (L1210 cell line; [1]): 28.1 nM; IC50 (L1210 cell line; [2]): 31.2 nM; DNA crosslinking (Comet) ratio (L1210): 0.53
